Patent US20100240713A1, “AROMATIC AND HETEROAROMATIC COMPOUNDS USEFUL IN TREATING IRON DISORDERS” (XENON PHARMACEUTICALS INC., priority 2007, published 2010)
Where a name gives a salt, the structure may show the parent alone.

Target: T1, DMT1 (Homo sapiens, UniProt P49281)
T1 sequence (P49281 1-568): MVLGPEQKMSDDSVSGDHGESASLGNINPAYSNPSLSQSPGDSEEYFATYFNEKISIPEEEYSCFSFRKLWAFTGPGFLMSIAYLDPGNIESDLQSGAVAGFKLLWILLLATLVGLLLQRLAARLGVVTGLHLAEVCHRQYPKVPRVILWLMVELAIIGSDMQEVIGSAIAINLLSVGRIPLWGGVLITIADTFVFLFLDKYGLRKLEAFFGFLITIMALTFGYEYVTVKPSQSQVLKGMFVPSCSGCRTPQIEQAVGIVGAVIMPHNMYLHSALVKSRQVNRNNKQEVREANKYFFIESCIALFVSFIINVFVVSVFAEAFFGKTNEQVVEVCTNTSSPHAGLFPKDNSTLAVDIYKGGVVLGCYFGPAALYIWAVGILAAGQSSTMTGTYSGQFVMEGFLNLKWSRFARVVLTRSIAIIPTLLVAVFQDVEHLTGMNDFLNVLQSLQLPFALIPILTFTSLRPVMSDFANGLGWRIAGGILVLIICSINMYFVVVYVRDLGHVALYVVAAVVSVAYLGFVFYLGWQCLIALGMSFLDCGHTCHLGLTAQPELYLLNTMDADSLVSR
Assay: DMT1 activity assay (IC50 activity level, Table 1)
Format: cell-based
Settings: inhibition of DMT1
Excerpt: This example discloses various in vitro assay for testing and profiling test agents against DMT1 stably expressed in cells of either an endogenous or recombinant origin. These assays can use stable cell lines overexpressing DMT1 or intestinal cells and intestinal tissue expressing endogenous DMT1. DMT1 function could also be assessed in other cell types that express DMT1. Of greatest relevance would be the erythrocytes (e.g. K562 cells) or hepatocytes (e.g. […]).
DMT1 function can be assessed in a number of ways, including monitoring fluorescence changes of an iron fluorophore (e.g. calcein), monitoring uptake of radiolabelled iron (^55Fe or ^59Fe) (Picard et al., J. Biol. Chem., 2000, 275(46):35738-45 and Wetli et al., Chem. Biol. 2006 September; 13(9):965-72), or by assessing the current or transport of iron and other metals into the cells or tissues using standard electrophysiological techniques (Gunshin et al., Nature, 1997, 388(6641):482-8.).
Variations of these assays involve alterations of incubation times, the iron status of the cells and tissues (which may be modulated by chemical chelators or by harvesting from iron deficient animals), the metal cation detected and the pH of the reaction can generally be made by conventional techniques known to those skilled in the art.
The Example numbers provided in Table 1 correspond to the Examples herein: […]

SMILES	IC50 [µM]
N=C(N)SCc1ccc2ccccc2c1CSC(=N)N [Example 3.20, naphthalene-1,2-diylbis(methylene)dicarbamimidothioate dihydrobromide]	≥ 1
COc1ccc(CSC(=N)N)cc1CSC(=N)N [Example 6.5, (4-methoxy-1,3-phenylene)bis(methylene)dicarbamimidothioate dihydrobromide]	≥ 1
Cc1c(C)c(C)c(CSC(=N)N)c(CSC(=N)N)c1C [Example 3.22, (3,4,5,6-tetramethyl-1,2-phenylene)bis(methylene)dicarbamimidothioate dihydrobromide]	≥ 1
N=C(N)SCc1ccc(CSC(=N)N)s1 [Example 3.9, thiophene-2,5-diylbis(methylene)dicarbamimidothioate dihydrochloride]	≥ 1
Cc1cc(CSC(=N)N)c(O)c(CSC(=N)N)c1 [Example 6.2, (2-hydroxy-5-methyl-1,3-phenylene)bis(methylene)dicarbamimidothioate dihydrobromide]	≥ 1
Cc1c(O)c(C)c(CSC(=N)N)c(C)c1CSC(=N)N [Example 3.19, (5-hydroxy-2,4,6-trimethyl-1,3-phenylene)bis(methylene) dicarbamimidothioate dihydrochloride]	0.1 to 1
Cc1c(C)c(CSC(=N)N)c(C)c(CSC(=N)N)c1C [Example 3.5, (2,4,5,6-tetramethyl-1,3-phenylene)bis(methylene)dicarbamimidothioate dihydrochloride]	≥ 1
N=C(N)SCc1n[nH]c(CSC(=N)N)n1 [Example 3.8, (1H-1,2,4-triazole-3,5-diyl)bis(methylene)dicarbamimidothiodate dihydrochloride]	≥ 1
N=C(N)SCc1sc(CSC(=N)N)c(-c2ccccc2)c1-c1ccccc1 [Example 3.10, (3,4-diphenylthiophene-2,5-diyl)bis(methylene)dicarbamimidothioate dihydrobromide]	≥ 1
Cc1nc(C)c(CSC(=N)N)c(C)c1CSC(=N)N [Example 8, (2,4,6-trimethylpyridine-3,5-diyl)bis(methylene)dicarbamimidothioate dihydrochloride]	≥ 1
N=C(N)SCc1cccc(CSC(=N)N)n1 [Example 3.12, pyridine-2,6-diylbis(methylene)dicarbamimidothioate dihydrobromide]	≥ 1
Cc1c(CSC(=N)N)cc(CSC(=N)N)c(C)c1Br [Example 3.17, (5-bromo-4,6-dimethyl-1,3-phenylene)bis(methylene) dicarbamimidothioate dihydrochloride]	≥ 1
Cc1c(CSC(=N)N)sc(CSC(=N)N)c1C [Example 6.3, (3,4-dimethylthiophene-2,5-diyl)bis(methylene)dicarbamimidothioate dihydrobromide]	≥ 1
CC(C)(SC(=N)N)c1cccc(C(C)(C)SC(=N)N)c1 [Example 6, 2-{1-[3-(1-carbamimidoylsulfanyl-1-methylethyl)phenyl]-1-methylethyl}-isothiourea dihydrobromide]	≥ 1
N=C(N)SCc1nnc(CSC(=N)N)n1N [Example 3.7, (4-amino-4H-1,2,4-triazole-3,5-diyl)bis(methylene)dicarbamimidothioate dihydrochloride]	≥ 1
COc1c(CSC(=N)N)cc(C)cc1CSC(=N)N [Example 3.18, (2-methoxy-5-methyl-1,3-phenylene)bis(methylene)dicarbamimidothioate dihydrobromide]	≥ 1
N=C(N)SCc1cccc2cccc(CSC(=N)N)c12 [Example 3.13, naphthalene-1,8-diylbis(methylene)dicarbamimidothioate dihydrobromide]	≥ 1

SMILES	IC50 [µM]
Cc1cc(CSC(=N)N)cc(CSC(=N)N)c1 [Example 3.3, (5-methyl-1,3-phenylene)bis(methylene)dicarbamimidothioate dihydrobromide]	≥ 1
N=C(N)Sc1cccc(SC(=N)N)c1 [Example 5, 1,3-phenylene dicarbamimidothioate dihydroiodide]	≥ 1
CCOC(=O)c1cc(C(=O)OCC)c(CSC(=N)N)cc1CSC(=N)N [Example 3.4, diethyl 4,6-bis(carbamimidoylthiomethyl)isophthalate dihydrobromide]	≥ 1
Cc1cc(C)c(CSC(=N)N)cc1CSC(=N)N [Example 3.16, (4,6-dimethyl-1,3-phenylene)bis(methylene)dicarbamimidothioate dihydrochloride]	0.1 to 1
Cc1cc(C)c(CSC(=N)N)c(C)c1CSC(=N)N [Example 3, (2,4,6-trimethyl-1,3-phenylene)bis(methylene)dicarbamimidothioate dihydrochloride]	0.1 to 1
Cc1c(CSC(=N)N)cccc1CSC(=N)N [Example 3.21, (2-methyl-1,3-phenylene)bis(methylene)dicarbamimidothioate dihydrobromide]	0.1 to 1
Cc1cc(C)c(CNC(=N)N)c(C)c1CNC(=N)N [Example 1, N-(3-guanidinomethyl-2,4,6-trimethylbenzyl)guanidine, bis(p-toluenesulfonate)]	≥ 1
N=C(N)SC(=O)c1sc(C(=O)SC(=N)N)c(Cl)c1Cl [Example 9, 2-(5-carbamimidoylsulfanecarbonyl-3,4-dichlorothiophene-2-carbonyl)isothiourea dihydrochloride]	≥ 1
N=C(N)SCc1c(Cl)c(Cl)c(Cl)c(CSC(=N)N)c1Cl [Example 3.6, (2,4,5,6-tetrachloro-1,3-phenylene)bis(methylene)dicarbamimidothioate dihydrochloride]	≥ 1
COc1cc(CSC(=N)N)cc(CSC(=N)N)c1 [Example 6.6, (5-methoxy-1,3-phenylene)bis(methylene)dicarbamimidothioate dihydrobromide]	≥ 1
N#Cc1c(CSC(=N)N)cccc1CSC(=N)N [Example 3.14, (2-cyano-1,3-phenylene)bis(methylene)dicarbamimidothioate dihydrobromide]	≥ 1
N=C(N)SCc1ccccc1CSC(=N)N [Example 3.15, (1,2-phenylene)bis(methylene)dicarbamimidothioate dihydrobromide]	≥ 1
Cc1cc(C)c(C(C)SC(=N)N)c(C)c1C(C)SC(=N)N (centres unmarked) [Example 6.1, 2-{1-[3-(1-carbamimidoylsulfanylethyl)-2,4,6-trimethylphenyl]ethyl}-isothiourea dihydrobromide]	0.1 to 1
Cc1c(CSC(=N)N)c(C)c(CSC(=N)N)c(C)c1CSC(=N)N [Example 3.11, (2,4,6-trimethylbenzene-1,3,5-triyl)tris(methylene) tricarbamimidothioate trihydrobromide]	≥ 1
N=C(N)SCc1cccc(CSC(=N)N)c1 [Example 3.2, 1,3-phenylenebis(methylene)dicarbamimidothioate dihydrobromide]	≥ 1
Cc1c(CSC(=N)N)sc2sc(CSC(=N)N)c(C)c12 [Example 6.4, (3,4-dimethylthieno[2,3-b]thiophene-2,5-diyl)bis(methylene)dicarbamimidothioate dihydrobromide]	≥ 1
CC(C)c1cc(C(C)C)c(CSC(=N)N)cc1CSC(=N)N [Example 3.1, (4,6-diisopropyl-1,3-phenylene)bis(methylene)dicarbamimidothioate dihydrobromide]	≥ 1

Tested on: not given
Assay: not given
Settings: not given

SMILES	melting point
Cc1cc(C)c(CNC(=N)N)c(C)c1CNC(=N)N (as salt: toluenesulfonate) [Example 1, N-(3-guanidinomethyl-2,4,6-trimethylbenzyl)guanidine, bis(p-toluenesulfonate)]	> 250 °C
Cc1c(CSC(=N)N)cccc1CSC(=N)N (as salt: hydrobromid) [Example 3.21, (2-methyl-1,3-phenylene)bis(methylene)dicarbamimidothioate dihydrobromide]	258 to 261 °C
N#Cc1c(CSC(=N)N)cccc1CSC(=N)N (as salt: hydrobromid) [Example 3.14, (2-cyano-1,3-phenylene)bis(methylene)dicarbamimidothioate dihydrobromide]	270 to 272 °C (dec.)
Cc1c(C)c(C)c(CSC(=N)N)c(CSC(=N)N)c1C (as salt: hydrobromid) [Example 3.22, (3,4,5,6-tetramethyl-1,2-phenylene)bis(methylene)dicarbamimidothioate dihydrobromide]	> 265 °C
